# Test system: IL-1β production in PMA-differentiated THP-1 cells
# Experiment: IL-1β production in PMA-differentiated THP-1 cells stimulated with gramicidin (hTHP-1 assay containing 2% fetal bovine serum)
# Format: cell-based, human
# Settings: Homo sapiens, THP-1, Table B1; 2% fetal bovine serum; cells printed as numeric bound; read-out: hTHP-1 IC50 (Average IC50 of compounds in hTHP-1 assay)
# Summary of the method: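 IL-1β release was read by HTRF on supernatants of 50,000 PMA-primed (20 ng/ml, 16-18 h) THP-1 cells/well in 2% FBS medium. Cells saw compound for 1 h (11-point titration from 100 μM, 0.37% DMSO) before a 2 h gramicidin (5 μM) challenge.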
row,IC50 [nM],SMILES
1,> 30000,"CC(C)c1cc(F)cc(C(C)C)c1C(C)C(=O)N=S(N)(=O)c1cnc(C(C)(C)O)s1 (centres unmarked) [Example 96, N-(amino(2-(2-hydroxypropan-2-yl)thiazol-5-yl)(oxo)-λ^6-sulfaneylidene)-2-(4-fluoro-2,6-diisopropylphenyl)propanamide]"
2,> 30000,"CC(C)(O)c1ncc(S(N)(=O)=NC(=O)Cc2c3c(cc4c2CC4)CCC3)s1 [Example 224, (S)- and (R)—N-(amino(2-(2-hydroxypropan-2-yl)thiazol-5-yl)(oxo)-λ^6-sulfaneylidene)-2-(2,4,5,6-tetrahydro-1H-cyclobuta[f]inden-3-yl)acetamide]"

# Same assay, conditions: Homo sapiens, THP-1, Table B1; 2% fetal bovine serum; class symbols; read-out: hTHP-1 IC50 (Average IC50 of compounds in hTHP-1 assay)
row,IC50 [nM],SMILES
1,200 to 1000,"CC(C)c1ccc(F)c(C(C)C)c1CC(=O)N=S(N)(=O)c1ccc(C(C)(C)O)s1 (centres unmarked) [Example 125, N-(amino(5-(2-hydroxypropan-2-yl)thiophen-2-yl)(oxo)-λ^6-sulfaneylidene)-2-(3-fluoro-2,6-diisopropylphenyl)acetamide]"
2,40 to 200,"CC(C)c1cc(COC2CCCC2)cc(C(C)C)c1CC(=O)N=S(N)(=O)c1cnc(C(C)(C)O)s1 (centres unmarked) [Example 141, N-(amino(2-(2-hydroxypropan-2-yl)thiazol-5-yl)(oxo)-λ^6-sulfaneylidene)-2-(4-((cyclopentyloxy)methyl)-2,6-diisopropylphenyl)acetamide]"
3,1000 to 5000,"CC(C)c1cc2c(c(C(C)C)c1CC(=O)N=S(N)(=O)c1cnc(C(C)(C)O)s1)CCC2 (centres unmarked) [Example 142, N-(amino(2-(2-hydroxypropan-2-yl)thiazol-5-yl)(oxo)-λ^6-sulfaneylidene)-2-(4,6-diisopropyl-2,3-dihydro-1H-inden-5-yl)acetamide]"
4,5000 to 30000,"CC(C)c1cnc(F)c(C(C)C)c1CC(=O)N=S(N)(=O)c1cnc(C(C)(C)O)s1 (centres unmarked) [Example 154, N-(amino(2-(2-hydroxypropan-2-yl)thiazol-5-yl)(oxo)-λ^6-sulfaneylidene)-2-(2-fluoro-3,5-diisopropylpyridin-4-yl)acetamide]"
5,1000 to 5000,"CC(C)(O)c1ncc(S(N)(=O)=NC(=O)Cc2c3c(cc4c2CC4)CCC3)s1 (centres unmarked) [Example 222, N-(amino(2-(2-hydroxypropan-2-yl)thiazol-5-yl)(oxo)-λ^6-sulfaneylidene)-2-(2,4,5,6-tetrahydro-1H-cyclobuta[f]inden-3-yl)acetamide]"

# Second part, the compound before the results:
row,SMILES,IC50 [nM]
1,"CC(C)c1cc(C#N)cc(C(C)C)c1CC(=O)N=S(N)(=O)c1sc(C(C)(C)O)nc1CO (centres unmarked) [Example 22, N-(amino(4-(hydroxymethyl)-2-(2-hydroxypropan-2-yl)thiazol-5-yl)(oxo)-λ^6-sulfaneylidene)-2-(4-cyano-2,6-diisopropylphenyl)acetamide]",200 to 1000
2,"CC(C)c1cc(-c2ccc3c(c2)COCC3)cc(C(C)C)c1CC(=O)N=S(N)(=O)c1cnc(C(C)(C)O)s1 (centres unmarked) [Example 97, N-(amino(2-(2-hydroxypropan-2-yl)thiazol-5-yl)(oxo)-λ^6-sulfaneylidene)-2-(4-(isochroman-7-yl)-2,6-diisopropylphenyl)acetamide]",200 to 1000
3,"CC(C)(O)c1ncc(S(N)(=O)=NC(=O)Cc2c(C3CC3)cc(F)cc2C(F)(F)F)s1 (centres unmarked) [Example 98, N-(amino(2-(2-hydroxypropan-2-yl)thiazol-5-yl)(oxo)-λ^6-sulfaneylidene)-2-(2-cyclopropyl-4-fluoro-6-(trifluoromethyl)phenyl)acetamide]",5000 to 30000
4,"CC(C)c1nc(-c2cccc(C(F)(F)F)c2)c(F)c(C(C)C)c1CC(=O)N=S(N)(=O)c1cnc(C(C)(C)O)s1 (centres unmarked) [Example 100, N-(amino(2-(2-hydroxypropan-2-yl)thiazol-5-yl)(oxo)-λ^6-sulfaneylidene)-2-(5-fluoro-2,4-diisopropyl-6-(3-(trifluoromethyl)phenyl)pyridin-3-yl)acetamide]",200 to 1000
5,"CC(C)c1ccc(F)c(C(C)C)c1CC(=O)N=S(N)(=O)c1cc(C(C)(C)O)cs1 (centres unmarked) [Example 106, N-(ainino(4-(2-hydroxypropan-2-yl)thiophen-2-yl)(oxo)-λ^6-sulfaneylidene)-2-(3-fluoro-2,6-diisopropylphenyl)acetamide]",40 to 200
6,"COCc1cc(C(C)C)c(CC(=O)N=S(N)(=O)c2ncc(C(C)(C)O)s2)c(C(C)C)c1 (centres unmarked) [Example 111, N-(amino(5-(2-hydroxypropan-2-yl)thiazol-2-yl)(oxo)-λ^6-sulfaneylidene)-2-(2,6-diisopropyl-4-(methoxymethyl)phenyl) acetamide]",40 to 200
7,"CC(C)c1cc(-c2ccc3c(c2)OC(F)(F)O3)cc(C(C)C)c1CC(=O)N=S(N)(=O)c1ncc(C(C)(C)O)s1 (centres unmarked) [Example 117, N-(amino(5-(2-hydroxypropan-2-yl)thiazol-2-yl)(oxo)-λ^6-sulfaneylidene)-2-(4-(2,2-difluorobenzo[d][1,3]dioxol-5-yl)-2,6-diisopropylphenyl) acetamide]",40 to 200
8,"CC(C)c1ccc(C#N)c(C(C)C)c1CC(=O)N=S(N)(=O)c1nc(C(C)(C)O)cs1 (centres unmarked) [Example 120, N-(amino(4-(2-hydroxypropan-2-yl)thiazol-2-yl)(oxo)-λ^6-sulfaneylidene)-2-(3-cyano-2,6-diisopropylphenyl)acetamide]",200 to 1000
9,"Cc1ccc(-c2cc(C(C)C)c(CC(=O)N=S(N)(=O)c3ncc(C(C)(C)O)s3)c(C(C)C)c2)cc1C (centres unmarked) [Example 121, N-(amino(5-(2-hydroxypropan-2-yl)thiazol-2-yl)(oxo)-λ^6-sulfaneylidene)-2-(3,5-diisopropyl-3′,4′-dimethyl-[1,1′-biphenyl]-4-yl)acetamide]",200 to 1000
10,"CC(C)c1cc(-c2ccc(Cl)c(Cl)c2)cc(C(C)C)c1CC(=O)N=S(N)(=O)c1ncc(C(C)(C)O)s1 (centres unmarked) [Example 122, N-(amino(5-(2-hydroxypropan-2-yl)thiazol-2-yl)(oxo)-λ^6-sulfaneylidene)-2-(3′,4′-dichloro-3,5-diisopropyl-[1,1′-biphenyl]-4-yl)acetamide]",200 to 1000
11,"CC(C)c1cc2c(c(C(C)C)c1CC(=O)N=S(N)(=O)c1ccc(CN(C)C)cc1)COC2 (centres unmarked) [Example 134, N-(amino(4-((dimethylamino)methyl)phenyl)(oxo)-λ^6-sulfaneylidene)-2-(4,6-diisopropyl-1,3-dihydroisobenzofuran-5-yl) acetamide]",1000 to 5000
12,"CC(C)c1cc(-c2ccc3c(c2)CCOC3)cc(C(C)C)c1CC(=O)N=S(N)(=O)c1sc(C(C)(C)O)nc1CO (centres unmarked) [Example 137, N-(amino(4-(hydroxymethyl)-2-(2-hydroxypropan-2-yl)thiazol-5-yl)(oxo)-λ^6-sulfaneylidene)-2-(4-(isochroman-6-yl)-2,6-diisopropylphenyl)acetamide]",200 to 1000
13,"CC(C)c1ncc(F)c(C(C)C)c1CC(=O)N=S(N)(=O)c1sc(C(C)(C)O)cc1F (centres unmarked) [Example 149, N-(amino(3-fluoro-5-(2-hydroxypropan-2-yl)thiophen-2-yl)(oxo)-λ^6-sulfaneylidene)-2-(5-fluoro-2,4-diisopropylpyridin-3-yl) acetamide]",200 to 1000
14,"CC(C)c1nc(C(F)(F)F)nc(C(C)C)c1CC(=O)N=S(N)(=O)c1cnc(C(C)(C)O)s1 (centres unmarked) [Example 153, N-(amino(2-(2-hydroxypropan-2-yl)thiazol-5-yl)(oxo)-λ^6-sulfaneylidene)-2-(4,6-diisopropyl-2-(trifluoromethyl)pyrimidin-5-yl)acetamide]",1000 to 5000
15,"CC(C)c1ccc(F)c(C(C)C)c1CC(=O)N=S(=O)(NC(=O)Cc1c(C(C)C)ccc(F)c1C(C)C)c1ccc(CN(C)C)nc1 (centres unmarked) [Example 225, N-(6-((dimethylamino)methyl)-N-(2-(3-fluoro-2,6-diisopropylphenyl)acetyl)pyridine-3-sulfonimidoyl)-2-(3-fluoro-2,6-diisopropylphenyl) acetamide]",5000 to 30000
16,"CC(C)c1cc(C#CC2CCCCC2)cc(C(C)C)c1CC(=O)N=S(N)(=O)c1cc(C(C)(C)O)n(-c2ccccc2)n1 (centres unmarked) [Example 226, N-(amino(5-(2-hydroxypropan-2-yl)-1-phenyl-1H-pyrazol-3-yl)(oxo)-λ^6-sulfaneylidene)-2-(4-(cyclohexylethynyl)-2,6-diisopropylphenyl)acetamide]",1000 to 5000
17,CC(C)c1cc(C(=O)CC2CCCCC2)cc(C(C)C)c1CC(=O)N=S(N)(=O)c1cc(C(C)(C)O)n(-c2ccccc2)n1 (centres unmarked) [Example 227],1000 to 5000

# Same assay, conditions: Table B1; 2% fetal bovine serum; class symbols; read-out: hTHP-1 IC50 (Average IC50 of compounds in hTHP-1 assay)
row,IC50 [nM],SMILES
1,40 to 200,"CC(C)c1cc(OC(F)F)cc(C(C)C)c1CC(=O)N=S(N)(=O)c1sc(C(C)(C)O)cc1F (centres unmarked) [Example 21, 2-(4-(difluoromethoxy)-2,6-diisopropylphenyl)-N-(3-fluoro-5-(2-hydroxypropan-2-yl)thiophen-2-ylsulfonimidoyl)acctamide]"
2,200 to 1000,"COCc1cc(C(C)C)c(CC(=O)N=S(N)(=O)c2sc(C(C)(C)O)nc2CO)c(C(C)C)c1 (centres unmarked) [Example 24, 2-(2,6-diisopropyl-4-(methoxymethyl)phenyl)-N-(4-(hydroxymethyl)-2-(2-hydroxypropan-2-yl)thiazole-5-sulfonimidoyl)acetamide]"

# Further lines, the compound ahead of its results:
row,SMILES,IC50 [nM]
1,"CC(C)c1cc(Cl)c(F)c(C2CC2)c1CC(=O)N=S(N)(=O)c1sc(C(C)(C)O)cc1F (centres unmarked) [Example 20, 2-(4-chloro-2-cyclopropyl-3-fluoro-6-isopropylphenyl)-N-(3-fluoro-5-(2-hydroxypropan-2-yl)thiophen-2-ylsulfonimidoyl)acetamide]",200 to 1000
2,"CCc1cc(OC(F)F)cc(C(C)C)c1CC(=O)N=S(N)(=O)c1sc(C(C)(C)O)cc1F (centres unmarked) [Example 36, 2-(4-(difluoromethoxy)-2-ethyl-6-isopropylphenyl)-N-(3-fluoro-5-(2-hydroxypropan-2-yl)thiophene-2-sulfonimidoyl)acetamide]",200 to 1000
3,"CC(C)(O)c1ncc(S(N)(=O)=NC(=O)Cc2c3c(cc4c2CC4)CCC3)s1 [Example 223, (S)- and (R)—N-(amino(2-(2-hydroxypropan-2-yl)thiazol-5-yl)(oxo)-λ^6-sulfaneylidene)-2-(2,4,5,6-tetrahydro-1H-cyclobuta[f]inden-3-yl)acetamide]",1000 to 5000
